According to patent US9789087B2, “PAR4 inhibitor therapy for patients with PAR4 polymorphism” (THOMAS JEFFERSON UNIVERSITY, priority 2015, dated 2017):
Substitutions are numbered along the chain they refer to. Entries after “also recorded” stand apart in the source; their conditions may differ.

Key:
[1] = system: platelets; settings: cited from earlier work
[2] = oral, rat carotid balloon injury; cited from earlier work
[3] = system: platelets; settings: cited from earlier work; remark: listed apart in the source
[4] = system: PAR4; assay: PAR4-AP-induced platelet aggregation, light transmission aggregometry, donors genotyped for rs773902; format: cell-based, human; settings: 100 μM PAR4-AP
Experimental: (§1) FIGS. 5A-5C show PAR4 variants are differentially susceptible to pharmacological inhibition. Platelets from donors genotyped for […] were washed, incubated with the indicated concentrations of vorapaxar (VPX) (FIGS. 5A, 5B) or YD-3 (FIG. 5C) and then stimulated with (FIG. 5A) 5 μM PAR1-AP or (FIGS. 5B, 5C) 100 μM PAR4-AP. Aggregation was measured using light transmission aggregometry. n=3 each genotype. Horizontal lines indicate mean. (P=0.02). […] Craig Lindsley at Vanderbilt University) as previously described.^27 Aggregation was then quantified after stimulation with 5 μM PAR1-AP or 100 μM PAR4-AP.

[5] = molecular target: T1, PAR4-Ala120 (Homo sapiens, UniProt Q96RI0); assay: PAR4-AP-induced platelet aggregation, platelets of PAR4-Ala120 homozygotes; format: cell-based; settings: 0.5 μM YD-3, 100 μM PAR4-AP, FIG. 5C
T1 construct: endogenous in cells; host or cells: washed platelets of human donors homozygous for rs773902 G (Ala120)
T1 sequence (Q96RI0 18-385): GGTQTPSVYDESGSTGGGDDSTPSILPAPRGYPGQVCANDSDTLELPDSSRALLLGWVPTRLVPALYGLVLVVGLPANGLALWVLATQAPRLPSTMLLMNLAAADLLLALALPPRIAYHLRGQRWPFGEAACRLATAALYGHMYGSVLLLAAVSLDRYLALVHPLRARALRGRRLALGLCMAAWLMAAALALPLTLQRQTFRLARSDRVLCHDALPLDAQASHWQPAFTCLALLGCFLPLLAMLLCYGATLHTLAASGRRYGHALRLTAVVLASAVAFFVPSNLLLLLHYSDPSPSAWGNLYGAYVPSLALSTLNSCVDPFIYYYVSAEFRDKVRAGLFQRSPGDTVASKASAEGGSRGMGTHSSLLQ
Experimental: (§2) FIGS. 5A-5C show PAR4 variants are differentially susceptible to pharmacological inhibition. Platelets from donors genotyped for rs773902 were washed, incubated with the indicated concentrations of vorapaxar (VPX) (FIGS. 5A, 5B) or YD-3 (FIG. 5C) and then stimulated with (FIG. 5A) 5 μM PAR1-AP or (FIGS. 5B, 5C) 100 μM PAR4-AP. Aggregation was measured using light transmission aggregometry. n=3 each genotype. Horizontal lines indicate mean. (P=0.02).
(§3) Platelets were pre-incubated with the indicated concentrations of vorapaxar^26 (Axon Medchem, Reston, Va., USA) or YD-3 [1-benzyl-3-(ethoxycarbonylphenyl)-indazole]^7 (a gift from Dr. Craig Lindsley at Vanderbilt University) as previously described.^27 Aggregation was then quantified after stimulation with 5 μM PAR1-AP or 100 μM PAR4-AP.
(§4) Multiple linear regression analysis was performed including the PAR4 protein level and the risk SNPs as explanatory variables and PAR4 reactivity as the dependent variable. To determine fraction of variance of PAR4 reactivity explained by PAR4 protein levels and F2RL3 genotype, PAR4 protein level was brought into the model first followed by rs773902 genotype. To test for an interaction between rs773902 and YD-3, a linear regression was performed, using aggregation as the dependent variable and PAR4-AP concentration, YD3 concentration, and rs773902 genotype as […]. […]

[6] = molecular target: T2, PAR4 (Homo sapiens, UniProt Q96RI0); settings: cited from earlier work
T2 construct: host or cells: platelets (cited work)
T2 sequence (Q96RI0 18-385): T1 sequence (Q96RI0 18-385)

[7] = system: smooth muscle cell; settings: cited from earlier work
[8] = molecular target: T3, PAR4-Thr120 (Homo sapiens, UniProt Q96RI0, A120T); assay: PAR4-AP-induced platelet aggregation, platelets of PAR4-Thr120 homozygotes; format: cell-based; settings: homozygous PAR4-Thr120, up to 1 μM YD-3, 100 μM PAR4-AP, FIG. 5C
T3 construct: endogenous in cells; host or cells: washed platelets of human donors homozygous for rs773902 A (Thr120)
T3 sequence (Q96RI0 18-385 A120T): T1 sequence (Q96RI0 18-385) with A103T
Experimental: as §2, §3, §4

[9] = molecular target: T4, PAR1 (Homo sapiens, UniProt P25116); assay: PAR1-AP-induced platelet aggregation, light transmission aggregometry; format: cell-based; settings: washed platelets, 5 μM PAR1-AP, FIG. 5A
T4 construct: endogenous in cells; host or cells: washed platelets of healthy human donors (cohort 2)
T4 sequence (P25116 22-425): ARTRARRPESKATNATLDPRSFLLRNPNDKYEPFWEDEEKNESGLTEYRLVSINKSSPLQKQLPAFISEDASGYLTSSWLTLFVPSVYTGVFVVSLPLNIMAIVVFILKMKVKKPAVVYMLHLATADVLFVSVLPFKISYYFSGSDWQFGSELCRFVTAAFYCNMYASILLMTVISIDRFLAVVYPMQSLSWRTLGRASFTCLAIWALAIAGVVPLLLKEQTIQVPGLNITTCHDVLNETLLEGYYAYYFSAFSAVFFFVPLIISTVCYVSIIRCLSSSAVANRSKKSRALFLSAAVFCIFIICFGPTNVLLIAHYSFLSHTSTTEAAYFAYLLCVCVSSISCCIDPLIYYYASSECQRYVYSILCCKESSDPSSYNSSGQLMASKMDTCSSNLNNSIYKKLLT
Experimental: as §1, with “Platelets” for “FIGS. 5A-5C show PAR4 variants are differentially susceptible to pharmacological inhibition. Platelets”, “mean.” for “mean. (P=0.02).”

inhibition of platelet aggregation through PAR1 [9]	SMILES	block of neutrophil-induced platelet aggregation [1]	intimal thickening [2]	block of thrombin-induced platelet recruitment [3]	inhibition of PAR4-induced platelet aggregation ([4]; rs773902 heterozygotes, FIG. 5C)	inhibition of PAR4-induced platelet aggregation [5]	block of PAR4-induced platelet aggregation [6]	block of thrombin-induced smooth muscle cell proliferation [7]	inhibition of PAR4-induced platelet aggregation [8]	effect on PAR4-induced platelet aggregation ([4]; washed platelets, regardless of rs773902 genotype, FIG. 5B)
–	CCOC(=O)c1ccc(-c2nn(Cc3ccccc3)c3ccccc23)cc1 [YD-3, ethyl 4-(1-benzyl-1H-indazol-3-yl)benzoate]	blocks	attenuates	blocks	intermediate response	inhibited	specifically blocks; also recorded: blocking	blocks	resistant	–
efficiently inhibited	CCOC(=O)N[C@@H]1CC[C@@H]2[C@@H](C1)C[C@H]1C(=O)O[C@H](C)[C@H]1[C@H]2/C=C/c1ccc(-c2cccc(F)c2)cn1 [vorapaxar]	–	–	–	–	–	–	–	–	no effect
